pIC50: −log10 of the molar value. ≈ marks a conversion by molar mass, not a printed value. Read-outs that look alike come from different tables or passages of the source. Marks after values point to notes of the source that are not given here.
What was measured:
[1] = tested on: murine macrophage cell line RAW264.7; experiment: Eukaryotic cell toxicity assay, RAW264.7; format: cell-based; conditions: Mus musculus, read-out: GIC50 RAW264.7; for pIC50: RAW264.7, value in square brackets; for IC50: murine macrophage cell line RAW264.7
[2] = tested on: R. equi RHA1; experiment: SPOTi assay, R. equi RHA1; format: cell-based, Rhodococcus equi; conditions: Rhodococcus (subgen. Prescottella) equi, RHA1, LB, 30°C 48 h
[3] = tested on: E. coli K12; experiment: SPOTi assay, E. coli; format: cell-based, Escherichia coli; conditions: Escherichia coli, K12, LB, 37°C overnight
[4] = tested on: M. bovis BCG Pasteur; experiment: microbe, parasite or virus in culture; format: cell-based; conditions: for MIC: Mycobacterium tuberculosis variant bovis BCG, BCG
[5] = tested on: M. smegmatis mc^2155; experiment: SPOTi assay, M. smegmatis; format: cell-based, Mycobacterium smegmatis; conditions: for MIC: Mycolicibacterium smegmatis, MC^2155
[6] = molecular target: MurE (Rv2158c) protein of M. tuberculosis H37Rv (Mycobacterium tuberculosis, UniProt P9WJL3); experiment: Mtb-MurE HPLC inhibition assay; format: biochemical; conditions: for pIC50: HPLC assay, 37°C 30 min
[7] = tested on: P. putida; experiment: SPOTi assay, P. putida; format: cell-based, Pseudomonas putida; conditions: Pseudomonas putida, LB, 37°C overnight
[8] = tested on: M. aurum; experiment: SPOTi assay, M. aurum; format: cell-based, Mycobacterium aurum; conditions: for MIC: Mycolicibacterium aurum
[9] = molecular target: T1, CYP 2D6 (Homo sapiens, UniProt P10635); experiment: CYP450 inhibition assay, CYP 2D6; format: in vitro ADME; parameters: dose or concentration left out as unconfirmed; conditions: CYP baculosomes with recombinant human CYP2D6, probe fluorogenic substrate (not named); human recombinant enzymes; read-out: Mean % inhibtion CYP 2D6
T1 construct: purchased; host or cells: baculosomes (insect-cell microsomes; own knowledge)
Protocol: (§1) The compounds originally dissolved in DMSO were added to PBS to give a resulting concentration of […]. CYP baculosomes containing cDNA for a single human P450 isozyme, the fluorogenic substrate and the NADPH were added to the test solution. The reaction was incubated at 37°C for at least 1 h. Fluorogenic substrates metabolized by CYP enzymes result in highly fluorescent products in aqueous solution. The inhibition of CYP prevents this metabolism, which corresponds to a decrease in the fluorescence signal. The fluorescence was measured on a plate reader.

[10] = molecular target: P-glycoprotein (Homo sapiens, UniProt P08183); experiment: in vitro; conditions: dog, MDCK-MDR1
Protocol: All dose solutions contained 10 μM propranolol as an internal standard. MDCK cells carrying the MDR-1 gene were used to seed filters that were exposed to a fixed volume of the donor solution containing the compound of interest. The compound's ability to traverse the monolayer and appear in the receiver compartment was measured over a 30 min period. Bidirectional permeability measurements were derived by examining the transfer of compound from both the apical to the basolateral compartment and vice versa. Sample analysis was conducted using LC-MS/MS with the detection settings optimized for each test compound.

[11] = molecular target: T2, CYP 2C19 (Homo sapiens, UniProt P33261); experiment: CYP450 inhibition assay, CYP 2C19; format: in vitro ADME; parameters: dose or concentration left out as unconfirmed; conditions: CYP baculosomes with recombinant human CYP2C19, probe fluorogenic substrate (not named); human recombinant enzymes; read-out: Mean % inhibtion CYP 2C19
T2 construct: purchased; host or cells: baculosomes (insect-cell microsomes; own knowledge)
Protocol: as §1

[12] = Human hepatocyte stability assay; format: in vitro ADME; parameters: half-life / hepatocyte CLint: dose or concentration left out as unconfirmed
Protocol: The compounds originally dissolved in DMSO were added to PBS to give a resulting concentration of 1 mM. Hepatocytes were then added to the solution and the reaction was incubated at 37°C for up to 120 min. Acetonitrile with internal standard was added to stop the incubation. The samples were centrifuged and the supernatant was then analysed by HPLC-MS/MS to detect the parent compound.

[13] = molecular target: T3, CYP 3A4 (Homo sapiens, UniProt P08684); experiment: CYP450 inhibition assay, CYP 3A4; format: in vitro ADME; parameters: dose or concentration left out as unconfirmed; conditions: CYP baculosomes with recombinant human CYP3A4, probe fluorogenic substrate (not named); human recombinant enzymes; read-out: Mean % inhibtion CYP 3A4
T3 construct: purchased; host or cells: baculosomes (insect-cell microsomes; own knowledge)
Protocol: as §1

[14] = molecular target: T4, CYP 1A2 (Homo sapiens, UniProt P05177); experiment: CYP450 inhibition assay, CYP 1A2; format: in vitro ADME; parameters: dose or concentration left out as unconfirmed; conditions: CYP baculosomes with recombinant human CYP1A2, probe fluorogenic substrate (not named); human recombinant enzymes; read-out: Mean % inhibtion CYP 1A2
T4 construct: purchased; host or cells: baculosomes (insect-cell microsomes; own knowledge)
T4 sequence (P05177 1-516): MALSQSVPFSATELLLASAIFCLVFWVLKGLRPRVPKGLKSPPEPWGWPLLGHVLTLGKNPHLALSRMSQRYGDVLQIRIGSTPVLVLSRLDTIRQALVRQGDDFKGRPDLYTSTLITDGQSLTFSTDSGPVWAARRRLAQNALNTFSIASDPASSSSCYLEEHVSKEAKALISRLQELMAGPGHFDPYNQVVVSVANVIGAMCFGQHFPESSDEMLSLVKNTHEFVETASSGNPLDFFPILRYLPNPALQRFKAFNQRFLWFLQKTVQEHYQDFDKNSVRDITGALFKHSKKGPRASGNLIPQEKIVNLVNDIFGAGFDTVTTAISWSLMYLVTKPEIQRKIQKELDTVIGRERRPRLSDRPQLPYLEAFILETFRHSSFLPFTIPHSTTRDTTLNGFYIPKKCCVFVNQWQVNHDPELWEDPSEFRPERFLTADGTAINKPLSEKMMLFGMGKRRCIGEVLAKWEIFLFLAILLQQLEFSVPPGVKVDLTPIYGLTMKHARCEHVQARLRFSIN
Protocol: as §1

[15] = tested on: MDCK cells carrying the MDR-1 gene; experiment: MDCK cell permeability assay; format: in vitro ADME, canine; conditions: MDCK MDR-1 monolayer, 10 μM, 30 min, apical to basolateral
[16] = tested on: MDR-1; experiment: MDCK cell permeability assay; format: in vitro ADME, canine; conditions: dog, MDCK-MDR1, MDCK MDR-1 monolayer, 10 μM, 30 min
[17] = MDCK cell permeability assay; format: in vitro ADME, canine; conditions: dog, MDCK-MDR1; MDCK MDR-1 monolayer, class
[18] = Aqueous kinetic solubility; format: physicochemical; conditions: aqueous with cosolvent or surfactant or cyclodextrin, kinetic from dmso stock, 5% DMSO in PBS, 21°C
Protocol: The compounds were equilibrated in 5% DMSO in PBS at 21°C for 24 h. The samples were then centrifuged at 15000 g for 10 min. A 100 μL sample of the supernatant was carefully collected and the soluble amount of compound quantified using LC-MS/MS. A standard curve for each compound was prepared in 100% acetonitrile. Solubility results are reported as low (<0.1 mg/mL), medium (0.1–0.5 mg/mL) and high (>0.5 mg/mL).

[19] = Human microsome stability assay; format: in vitro ADME; parameters: half-life: dose or concentration left out as unconfirmed; conditions: for Mean % microsome turnover / Mean compound remaining / Microsomal stability: human liver microsomes
Protocol: Microsomes and NADPH were then added to the solution and the reaction was incubated at 37°C for up to 60 min. Acetonitrile (300 μL) with internal standard was added to stop the incubation. The samples were centrifuged and the supernatant was then analysed by HPLC-MS/MS to detect the parent compound.

[20] = molecular target: T5, CYP 2C9 (Homo sapiens, UniProt P11712); experiment: CYP450 inhibition assay, CYP 2C9; format: in vitro ADME; parameters: dose or concentration left out as unconfirmed; conditions: CYP baculosomes with recombinant human CYP2C9, probe fluorogenic substrate (not named); human recombinant enzymes; read-out: Mean % inhibtion CYP 2C9
T5 construct: purchased; host or cells: baculosomes (insect-cell microsomes; own knowledge)
Protocol: as §1

[21] = tested on: M. bovis BCG; format: cell-based; conditions: M. bovis BCG treated at 4 × MIC for 48 h (D-cycloserine 100 mg/L, 39 160 mg/L); 100 cells
[22] = tested on: murine macrophage cell line RAW264.7; parameters: method as in Gupta and Bhakta.[27]; conditions: ref Gupta and Bhakta.[27]; cited from earlier work
[23] = tested on: M. tuberculosis H37Rv; experiment: SPOTi growth inhibition assay, M. tuberculosis H37Rv; format: cell-based; conditions: Mycobacterium tuberculosis, H37RV, SPOTi, read-out: MIC M. tuberculosis H37Rv
[24] = 336 h, read-out: MIC M. bovis BCG, SPOTi, 2 weeks at 37°C
[25] = read-out: MIC M. bovis BCG, SPOTi, value in square brackets

Sequence of MurE (Rv2158c) protein of M. tuberculosis H37Rv (P9WJL3 whole entry, looked up): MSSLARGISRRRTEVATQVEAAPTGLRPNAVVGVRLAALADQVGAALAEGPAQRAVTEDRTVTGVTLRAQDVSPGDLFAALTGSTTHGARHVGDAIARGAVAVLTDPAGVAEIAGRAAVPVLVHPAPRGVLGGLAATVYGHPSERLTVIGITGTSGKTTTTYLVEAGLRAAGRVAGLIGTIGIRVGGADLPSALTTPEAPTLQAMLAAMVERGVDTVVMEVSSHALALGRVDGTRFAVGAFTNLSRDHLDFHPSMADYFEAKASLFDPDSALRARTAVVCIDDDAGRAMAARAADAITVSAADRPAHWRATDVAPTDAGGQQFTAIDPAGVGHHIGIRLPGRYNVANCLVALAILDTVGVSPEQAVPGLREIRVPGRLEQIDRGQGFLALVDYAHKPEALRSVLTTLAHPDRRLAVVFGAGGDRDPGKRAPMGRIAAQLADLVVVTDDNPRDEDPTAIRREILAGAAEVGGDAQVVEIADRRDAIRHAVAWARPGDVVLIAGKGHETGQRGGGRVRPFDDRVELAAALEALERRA
T5 sequence (P11712 whole entry): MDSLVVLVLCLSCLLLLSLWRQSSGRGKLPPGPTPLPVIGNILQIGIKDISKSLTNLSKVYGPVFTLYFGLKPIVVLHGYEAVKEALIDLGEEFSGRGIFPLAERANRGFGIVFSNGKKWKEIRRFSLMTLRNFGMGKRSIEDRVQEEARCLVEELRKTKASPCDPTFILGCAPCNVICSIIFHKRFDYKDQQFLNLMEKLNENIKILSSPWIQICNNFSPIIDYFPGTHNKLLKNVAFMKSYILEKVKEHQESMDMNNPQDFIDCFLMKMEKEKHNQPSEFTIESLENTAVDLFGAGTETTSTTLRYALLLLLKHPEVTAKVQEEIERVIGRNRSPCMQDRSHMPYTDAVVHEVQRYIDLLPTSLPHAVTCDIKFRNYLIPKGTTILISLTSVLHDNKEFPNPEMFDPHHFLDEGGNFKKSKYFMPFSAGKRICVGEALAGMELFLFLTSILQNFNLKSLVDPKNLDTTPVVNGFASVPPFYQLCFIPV
Sequence of P-glycoprotein (P08183 whole entry): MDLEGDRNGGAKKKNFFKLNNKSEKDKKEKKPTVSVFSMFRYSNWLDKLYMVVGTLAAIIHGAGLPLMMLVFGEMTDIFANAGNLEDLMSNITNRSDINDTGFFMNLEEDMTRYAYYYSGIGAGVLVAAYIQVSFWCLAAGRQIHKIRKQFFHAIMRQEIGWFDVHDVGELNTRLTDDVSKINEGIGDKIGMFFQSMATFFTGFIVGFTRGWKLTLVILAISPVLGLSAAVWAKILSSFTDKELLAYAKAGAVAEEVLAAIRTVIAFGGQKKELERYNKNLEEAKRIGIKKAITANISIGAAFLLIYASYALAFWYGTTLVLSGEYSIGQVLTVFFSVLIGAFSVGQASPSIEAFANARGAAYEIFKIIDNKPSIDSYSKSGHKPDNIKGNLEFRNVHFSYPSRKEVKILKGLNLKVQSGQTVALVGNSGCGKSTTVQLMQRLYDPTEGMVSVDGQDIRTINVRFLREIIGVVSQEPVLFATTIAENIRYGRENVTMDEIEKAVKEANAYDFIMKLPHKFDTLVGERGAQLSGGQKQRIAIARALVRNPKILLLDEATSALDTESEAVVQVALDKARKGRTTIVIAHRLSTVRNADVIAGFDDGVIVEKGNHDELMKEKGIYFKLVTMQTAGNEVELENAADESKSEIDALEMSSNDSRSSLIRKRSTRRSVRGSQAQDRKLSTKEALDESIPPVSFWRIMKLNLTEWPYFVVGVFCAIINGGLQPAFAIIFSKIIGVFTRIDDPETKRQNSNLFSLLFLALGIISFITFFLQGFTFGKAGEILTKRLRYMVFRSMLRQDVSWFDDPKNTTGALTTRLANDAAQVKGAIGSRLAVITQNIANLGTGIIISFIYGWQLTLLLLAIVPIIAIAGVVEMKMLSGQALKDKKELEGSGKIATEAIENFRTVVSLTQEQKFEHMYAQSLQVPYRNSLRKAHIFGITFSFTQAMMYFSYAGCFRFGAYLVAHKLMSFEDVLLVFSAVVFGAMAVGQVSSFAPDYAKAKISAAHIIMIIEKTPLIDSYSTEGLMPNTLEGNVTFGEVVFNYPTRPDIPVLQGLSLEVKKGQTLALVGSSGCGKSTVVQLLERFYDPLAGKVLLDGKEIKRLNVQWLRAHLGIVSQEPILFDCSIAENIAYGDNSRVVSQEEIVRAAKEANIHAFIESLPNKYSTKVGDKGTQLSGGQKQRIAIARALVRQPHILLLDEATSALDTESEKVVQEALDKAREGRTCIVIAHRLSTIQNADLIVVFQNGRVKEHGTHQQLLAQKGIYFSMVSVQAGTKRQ
T1 sequence (P10635 whole entry): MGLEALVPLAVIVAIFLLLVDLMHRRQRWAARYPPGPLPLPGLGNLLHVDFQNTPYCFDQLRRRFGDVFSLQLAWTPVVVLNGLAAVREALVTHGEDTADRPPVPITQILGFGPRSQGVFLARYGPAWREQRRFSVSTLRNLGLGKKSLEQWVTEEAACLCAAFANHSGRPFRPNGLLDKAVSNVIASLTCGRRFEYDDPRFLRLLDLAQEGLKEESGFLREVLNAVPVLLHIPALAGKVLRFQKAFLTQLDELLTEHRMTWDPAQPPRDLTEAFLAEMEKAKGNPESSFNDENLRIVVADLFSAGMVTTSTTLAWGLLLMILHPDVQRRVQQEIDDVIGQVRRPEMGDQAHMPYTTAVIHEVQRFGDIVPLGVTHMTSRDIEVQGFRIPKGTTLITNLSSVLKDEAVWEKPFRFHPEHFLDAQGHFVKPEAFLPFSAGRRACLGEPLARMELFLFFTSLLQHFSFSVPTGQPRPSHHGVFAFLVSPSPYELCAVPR
T3 sequence (P08684 whole entry): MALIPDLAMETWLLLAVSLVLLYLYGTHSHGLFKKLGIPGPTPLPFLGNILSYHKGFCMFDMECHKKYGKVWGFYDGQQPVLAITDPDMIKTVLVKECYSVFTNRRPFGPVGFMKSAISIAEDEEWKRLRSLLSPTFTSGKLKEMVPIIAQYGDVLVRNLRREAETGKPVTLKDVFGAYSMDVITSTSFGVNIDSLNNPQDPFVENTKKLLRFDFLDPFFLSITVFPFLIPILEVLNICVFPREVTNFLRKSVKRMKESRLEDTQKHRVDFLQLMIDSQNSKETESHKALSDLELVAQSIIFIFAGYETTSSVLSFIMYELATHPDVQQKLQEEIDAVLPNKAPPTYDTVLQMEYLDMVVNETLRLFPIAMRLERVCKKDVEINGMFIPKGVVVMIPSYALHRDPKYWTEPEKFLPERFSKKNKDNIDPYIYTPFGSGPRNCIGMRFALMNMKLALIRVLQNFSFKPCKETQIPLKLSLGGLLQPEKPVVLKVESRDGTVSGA
T2 sequence (P33261 whole entry): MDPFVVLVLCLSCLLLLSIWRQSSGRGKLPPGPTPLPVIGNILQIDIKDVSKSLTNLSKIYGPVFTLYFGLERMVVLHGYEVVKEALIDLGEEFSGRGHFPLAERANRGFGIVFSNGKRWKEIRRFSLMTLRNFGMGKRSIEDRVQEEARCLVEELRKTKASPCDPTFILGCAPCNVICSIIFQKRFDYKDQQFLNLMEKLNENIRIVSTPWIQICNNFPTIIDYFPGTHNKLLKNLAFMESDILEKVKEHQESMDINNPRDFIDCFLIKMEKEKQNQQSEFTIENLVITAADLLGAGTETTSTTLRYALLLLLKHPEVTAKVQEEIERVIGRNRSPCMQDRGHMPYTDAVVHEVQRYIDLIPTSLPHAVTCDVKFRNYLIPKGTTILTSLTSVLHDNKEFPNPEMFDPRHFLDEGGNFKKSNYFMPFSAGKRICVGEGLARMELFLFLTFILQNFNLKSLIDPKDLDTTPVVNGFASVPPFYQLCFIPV

Oc1cc2c(cc1O)C(Cc1ccc3c(c1)OCO3)NCC2 (stereo not shown) [Compound 20] showed a pIC50 [1] of 3.22, an IC50 [1] of 190 µg/mL and an MIC [2] greater than 100 µg/mL. It also gave an MIC [3] greater than 100 µg/mL, an MIC [4, 24] greater than 60 µg/mL and an MIC [4, 25] of 334 µM. The “MIC M. bovis BCG” value ([4]; SPOTi, 2 weeks at 37°C) was 100 µg/mL (≈ 334 µM), the “MIC M. smegmatis mc^2155” value [5] was greater than 100 µg/mL and the MIC [5] was greater than 100 µg/mL. For the same compound, the pIC50 [6] was 3.63, the MIC [7] was greater than 100 µg/mL and the “MIC M. aurum” value [8] was greater than 100 µg/mL. For the same compound, the MIC [8] was greater than 100 µg/mL.
Work on Oc1ccc(Br)c2c1C(c1cccc3c1OCO3)NCC2 (stereo not shown) [Compound 35] yielded an inhibition [9] of 80.7%, a pIC50 [1] of 3.46 and an IC50 [1] of 121 µg/mL. It also gave an efflux ratio [10] of 11.9, an inhibition [11] of 98.2% and a hepatic extraction ratio ([12]; hepatocyte stability assay) greater than 0.6. The half-life ([12]; human, hepatocytes, human hepatocytes, read-out: t1/2 hepatocytes) was 1.31 h, the hepatocyte CLint ([12]; human, hepatocytes, in vivo hepatic intrinsic clearance prediction values) was 12.6 µL/min/1e6 cells and the inhibition [13] was 80%. It also gave an MIC [4, 24] of 60 µg/mL, an MIC [4, 25] of 172 µM and an inhibition [14] of 36.7%. For the same compound, the “Papp A-B” value [15] was 3.2 cm/sec, x10-6, the Papp A→B at 30 min, 10 μM ([16]; apical to basolateral) was 3.2 ×10⁻⁶ cm/s and the Papp B→A at 30 min, 10 μM ([16]; basolateral to apical) was 38 ×10⁻⁶ cm/s. For the same compound, the Papp A→B at 30 min, 10 μM [17] was 2 to 20 ×10⁻⁶ cm/s, the pIC50 [6] was greater than 3.95 and the solubility kinetic at 24 h [18] was 300 µg/mL (≈ 862 µM). The “Mean % microsome turnover” value ([19]; 0 min) was -5.55e-15%, the Mean compound remaining ([19]; 0 min) was 100.00 and the Microsomal stability ([19]; 0 min) was 4.60. For the same compound, the “Mean % microsome turnover” value ([19]; 15 min) was 3.85%, the Mean compound remaining ([19]; 15 min) was 96.15 and the Microsomal stability ([19]; 15 min) was 4.57. For the same compound, the “Mean % microsome turnover” value ([19]; 30 min) was 14.54%, the Mean compound remaining ([19]; 30 min) was 85.46 and the Microsomal stability ([19]; 30 min) was 4.45. The “Mean % microsome turnover” value ([19]; 60 min) was 30.44%, the Mean compound remaining ([19]; 60 min) was 69.56 and the Microsomal stability ([19]; 60 min) was 4.24. For the same compound, the half-life ([19]; human, liver microsomes, read-out: t1/2 microsomes) was 1.83 h and the inhibition [20] was 44.9%.
Compound N[C@@H]1CON=C1O [D-cycloserine, reference compound] has a cell length [21] of 4.2 ± 1.0 μm and an MIC [4, 24] of 25 µg/mL.
In the case of CO[C@H]1/C=C/O[C@@]2(C)Oc3c(C)c(O)c4c(O)c(c(/C=N/N5CCN(C)CC5)c(O)c4c3C2=O)NC(=O)/C(C)=C\C=C\[C@H](C)[C@H](O)[C@@H](C)[C@@H](O)[C@@H](C)[C@H](OC(C)=O)[C@@H]1C [Rifampicin, reference compound], the “GIC50 RAW264.7” value [22] is given as 700^a mg/L, the MIC [4, 24] is given as 0.05 µg/mL and the MIC [4, 25] is given as 0.061 µM. The MIC ([23]; 336 h, 2 weeks at 37°C) was 0.05 µg/mL, the MIC ([23]; value in square brackets) was 0.061 µM and the MIC [5] was 0.1 µg/mL (≈ 0.122 µM). For the same compound, the MIC [8] was 0.1 µg/mL (≈ 0.122 µM).
For NNC(=O)c1ccncc1 [Isoniazid, reference compound], the “GIC50 RAW264.7” value [22] is given as 3000^a mg/L, the MIC [4, 24] is given as 0.1 µg/mL and the MIC [4, 25] is given as 0.73 µM. The MIC ([23]; 336 h, 2 weeks at 37°C) was 0.1 µg/mL, the MIC ([23]; value in square brackets) was 0.73 µM and the pIC50 [6] was less than 3.00. For the same compound, the Mtb-MurE inhibitory effect ([6]; negative control, any of the concentrations examined) was “no inhibitory effect”.
